pEC50: −log10 of the molar value. A value given as a limit tells only on which side of the number the result lay.

Holding throughout (type): cell-based
Test [1] concerns RSV strain A2. Briefly: microbe, parasite or virus in culture. To be noted: human respiratory syncytial virus, HEp-2, 96 h, Table 3; HEp-2 cells, RSV A2, 4 days; read-out: RSV HEp-2 EC50. In a few lines:
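Cytopathic-effect protection assay: HEp-2 cells (50,000/mL) infected with pre-titered RSV A2 onto 3-fold serial compound dilutions, incubated 4 days at 37° C. Cell viability read by CellTiter-Glo luminescence; percent inhibition derived against 0% and 100% virus-inhibition controls.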

The subject of test [2] is RSV A2. Nature of the test: RSV NHBE EC50 (RSV A2 antiviral assay in NHBE cells). Particulars: human respiratory syncytial virus, NHBE, 96 h, Table 3; NHBE cells, RSV A2, 4 days; read-out: RSV NHBE EC50. In a few lines: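 Read-out: CellTiter-Glo luminescence of cell viability after 4 days at 37° C. Primary NHBE cells, 7,500/well, 3-fold compound dilutions, 0.05% DMSO, infected with RSV A2 (1×10^4.5 TCID/mL).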

For test [3], the system named is HRV16. Briefly: HRV16 HeLa EC50 (cytopathic effect in H1-HeLa cells). Particulars: 96 h, Table 3; H1-HeLa cells, 96 h; read-out: HRV16 HeLa EC50. In a few lines: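 Read-out is luminescent cell viability (CellTiter-Glo) after 96 h of infection at 33 °C, scaled between uninfected and infected-untreated wells. Before infection with titrated virus, compounds went onto H1-HeLa cells as triplicate 3-fold dilution series.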

Test [4] deals with DENV2 replicon. Briefly: DENV-2 Huh-7 Rep EC50 (replicon luminescence). To be noted: Dengue virus, DENV2, Huh-7, 48 h, read-out: DENV-2 REP Huh7 EC50. In a few lines:
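EC50 derived from luminescence dose-response, normalised to DMSO-only 0% inhibition wells, after 1.5 h with EnduRen substrate. Compounds were first exposed for 48 h at 37° C to DENV2 replicon Huh-7 cells (5,000/well).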

Turning to `CC(C)OC(=O)[C@H](C)N[P@](=O)(OC[C@@]1(C#N)O[C@@H](c2ccc3c(N)ncnn23)[C@H](OC(=O)CC(C)(C)O)[C@@H]1OC(=O)CC(C)(C)O)Oc1ccccc1` [Example 152, (2R,3S,4S,5S)-5-(4-aminopyrrolo[2,1-f][1,2,4]triazin-7-yl)-2-cyano-2-((((S)-(((S)-1-isopropoxy-1-oxopropan-2-yl)amino)(phenoxy)phosphoryl)oxy)methyl) tetrahydrofuran-3,4-diyl bis(3-hydroxy-3-methylbutanoate)], the negative-log EC50 (pEC50) in test [1] was 5.53; in test [2], less than 5.30; in test [3], less than 4.30; in test [4], less than 4.30.

As for `CC(C)[C@@H](N)C(=O)O[C@H]1[C@H](c2ccc3c(N)ncnn23)O[C@](C#N)(CO[P@@](=O)(N[C@@H](C)C(=O)OC2CCCCC2)Oc2ccccc2)[C@H]1OC(=O)[C@H](N)C(C)C` [Example 153, (2R,3S,4S,5S)-5-(4-aminopyrrolo[2,1-f][1,2,4]triazin-7-yl)-2-cyano-2-((((S)-(((S)-1-(cyclohexyloxy)-1-oxopropan-2-yl)amino)(phenoxy)phosphoryl)oxy)methyl)tetrahydrofuran-3,4-diyl (2R,2′R)-bis(2-amino-3-methylbutanoate)], the pEC50 is 6.96 in test [1], 6.55 in test [2], 6.33 in test [3] and 5.18 in test [4].

Regarding `CO[C@H](C)C(=O)O[C@H]1[C@H](c2ccc3c(N)ncnn23)O[C@](C#N)(CO[P@@](=O)(N[C@@H](C)C(=O)OC(C)C)Oc2ccccc2)[C@H]1OC(=O)[C@@H](C)OC` [Example 154, (2R,3S,4S,5S)-5-(4-aminopyrrolo[2,1-f][1,2,4]triazin-7-yl)-2-cyano-2-((((S)-(((S)-1-isopropoxy-1-oxopropan-2-yl)amino)(phenoxy)phosphoryl)oxy)methyl) tetrahydrofuran-3,4-diyl (2R,2′R)-bis(2-methoxypropanoate)], the pEC50 is 6.73 in test [1], 6.94 in test [2], 6.06 in test [3] and 4.69 in test [4].

Turning to `CO[C@H](C)C(=O)Nc1ncnn2c([C@@H]3O[C@](C#N)(CO[P@@](=O)(N[C@@H](C)C(=O)OC(C)C)Oc4ccccc4)[C@@H](OC(=O)[C@@H](C)OC)[C@H]3OC(=O)[C@@H](C)OC)ccc12` [Example 155, (2R,3S,4S,5S)-2-cyano-2-((((S)-(((S)-1-isopropoxy-1-oxopropan-2-yl)amino)(phenoxy)phosphoryl)oxy)methyl)-5-(4-((R)-2-methoxypropanamido)pyrrolo[2,1-f][1,2,4]triazin-7-yl)tetrahydrofuran-3,4-diyl (2R,2′R)-bis(2-methoxypropanoate)], the negative-log EC50 (pEC50) was 6.36 in test [1], 6.53 in test [2], 5.57 in test [3] and 4.53 in test [4].

With `CC(C)OC(=O)[C@H](C)N[P@](=O)(OC[C@@]1(C#N)O[C@@H](c2ccc3c(N)ncnn23)[C@H](OC(=O)C2CCOCC2)[C@@H]1OC(=O)C1CCOCC1)Oc1ccccc1` [Example 156, (2R,3S,4S,5S)-5-(4-aminopyrrolo[2,1-f][1,2,4]triazin-7-yl)-2-cyano-2-((((S)-(((S)-1-isopropoxy-1-oxopropan-2-yl)amino)(phenoxy)phosphoryl)oxy)methyl) tetrahydrofuran-3,4-diyl bis(tetrahydro-2H-pyran-4-carboxylate)], the negative logarithm of the EC50 (pEC50) in test [1] is 6.34; in test [2], less than 5.30; in test [3], 4.66; in test [4], less than 4.30.

Take `CC(C)OC(=O)[C@H](C)N[P@](=O)(OC[C@@]1(C#N)O[C@@H](c2ccc3c(N)ncnn23)[C@H](OC(=O)[C@@H](N)C(C)C)[C@@H]1OC(=O)[C@@H](N)C(C)C)Oc1ccccc1` [Example 157, (2R,3S,4S,5S)-5-(4-aminopyrrolo[2,1-f][1,2,4]triazin-7-yl)-2-cyano-2-((((S)-(((S)-1-isopropoxy-1-oxopropan-2-yl)amino)(phenoxy)phosphoryl)oxy)methyl)tetrahydrofuran-3,4-diyl (2S,2'S)-bis(2-amino-3-methylbutanoate)]: the pEC50 in test [1] was 6.64; in test [2], 5.80; in test [3] it was 5.75; in test [4] it was 4.59.

In the case of `CO[C@@H](C)C(=O)O[C@H]1[C@H](c2ccc3c(N)ncnn23)O[C@](C#N)(CO[P@@](=O)(N[C@@H](C)C(=O)OC(C)C)Oc2ccccc2)[C@H]1OC(=O)[C@H](C)OC` [Example 158, (2R,3S,4S,5S)-5-(4-aminopyrrolo[2,1-f][1,2,4]triazin-7-yl)-2-cyano-2-((((S)-(((S)-1-isopropoxy-1-oxopropan-2-yl)amino)(phenoxy)phosphoryl)oxy)methyl) tetrahydrofuran-3,4-diyl (2S,2'S)-bis(2-methoxypropanoate)], the negative-log EC50 (pEC50) in test [1] was 6.86; in test [2] it was 7.28; in test [3], 6.14; in test [4], 4.80.

Consider `CCC(=O)O[C@H]1[C@H](c2ccc3c(N)ncnn23)O[C@](C#N)(COP(=O)(N[C@@H](C)C(=O)OC[C@H]2CC[C@H](N)CC2)Oc2ccccc2)[C@H]1OC(=O)CC` (stereo partly drawn) [Example 159, (2R,3S,4S,5S)-2-((((((S)-1-(((1r,4S)-4-aminocyclohexyl)methoxy)-1-oxopropan-2-yl)amino)(phenoxy)phosphoryl)oxy)methyl)-5-(4-aminopyrrolo[2,1-f][1,2,4]triazin-7-yl)-2-cyanotetrahydrofuran-3,4-diyl dipropionate], for which the pEC50 in test [1] was 5.10; in test [2], 5.81; in test [3], 4.48; in test [4] it was less than 4.30.

Regarding `COCCOCC(=O)O[C@H]1[C@H](c2ccc3c(N)ncnn23)O[C@](C#N)(CO[P@@](=O)(N[C@@H](C)C(=O)OC(C)C)Oc2ccccc2)[C@H]1OC(=O)COCCOC` [Example 161, (2R,3S,4S,5S)-5-(4-aminopyrrolo[2,1-f][1,2,4]triazin-7-yl)-2-cyano-2-((((S)-(((S)-1-isopropoxy-1-oxopropan-2-yl)amino)(phenoxy)phosphoryl)oxy)methyl) tetrahydrofuran-3,4-diyl bis(2-(2-methoxyethoxy)acetate)], the negative-log EC50 (pEC50) in test [1] is 6.82; in test [2] it was 5.94; in test [3], 5.91; in test [4] it was 4.65.

`COC(=O)[C@H](C)N[P@](=O)(OC[C@@]1(C#N)O[C@@H](c2ccc3c(N)ncnn23)[C@H](OC(=O)[C@@H](C)OC)[C@@H]1OC(=O)[C@@H](C)OC)Oc1ccccc1` [Example 166, (2R,3S,4S,5S)-5-(4-aminopyrrolo[2,1-f][1,2,4]triazin-7-yl)-2-cyano-2-((((S)-(((S)-1-methoxy-1-oxopropan-2-Yl)amino)(phenoxy)phosphoryl)oxy)methyl) tetrahydrofuran-3,4-diyl (2R,2′R)-bis(2-methoxypropanoate)]: the pEC50 in test [1] is 6.80; in test [2], 6.95; in test [3], 5.78; in test [4] it was 4.66.

On to `CCC(=O)Nc1ncnn2c([C@@H]3O[C@](C#N)(COP(=O)(N[C@@H](C)C(=O)OC4CCOCC4)Oc4ccccc4)[C@@H](OC(=O)CC)[C@H]3OC(=O)CC)ccc12` (stereo partly drawn) [Example 170, (2R,3S,4S,5S)-2-Cyano-2-((((((S)-1-oxo-1-((tetrahydro-2H-pyran-4-yl)oxy)propan-2-yl)amino)(phenoxy)phosphoryl)oxy)methyl)-5-(4-propionamidopyrrolo[2,1-f][1,2,4]triazin-7-yl)tetrahydrofuran-3,4-diyl dipropionate], for which the pEC50 in test [1] was 6.57; in test [2], 7.10; in test [3] it was 6.06; in test [4], 4.80.

Consider `CCC(=O)O[C@H]1[C@H](c2ccc3c(N)ncnn23)O[C@](C#N)(CO[P@@](=O)(N[C@@H](C)C(=O)OCC(CC)CC)Oc2ccccc2)[C@H]1OC(=O)CC` [Example 180, (2R,3S,4S,5S)-5-(4-aminopyrrolo[2,1-f][1,2,4]triazin-7-yl)-2-cyano-2-((((S)-(((S)-1-(2-ethylbutoxy)-1-oxopropan-2-yl)amino)(phenoxy)phosphoryl)oxy)methyl) tetrahydrofuran-3,4-diyl dipropionate], for which the negative logarithm of the EC50 (pEC50) was 7.21 in test [1], 7.51 in test [2], 6.75 in test [3] and 5.08 in test [4].

For the origin of these results see patent US12264173B2 (GILEAD SCIENCES, INC., priority 2020, dated 2025).
